Measured values published in ChEMBL document CHEMBL1139451, “The discovery of ezetimibe: a view from outside the receptor” (2004).
Values belong to the compound of their own block, whether it stands above or below them. Activity calls are given as the source filed them. The calls are words filed in the database; no cut-off is given here.

Experiments:
[1] = biological target: T1, Sterol O-acyltransferase 1 (Cricetulus griseus) (UniProt Q60457); assay: Compound was tested for the change in liver cholesteryl ester (CE) levels by the inhibition of ACAT in hamster at 50 mg/kg p.o.; type: functional, organism-based; set-up: dose 50 mg/kg
T1 sequence (whole entry): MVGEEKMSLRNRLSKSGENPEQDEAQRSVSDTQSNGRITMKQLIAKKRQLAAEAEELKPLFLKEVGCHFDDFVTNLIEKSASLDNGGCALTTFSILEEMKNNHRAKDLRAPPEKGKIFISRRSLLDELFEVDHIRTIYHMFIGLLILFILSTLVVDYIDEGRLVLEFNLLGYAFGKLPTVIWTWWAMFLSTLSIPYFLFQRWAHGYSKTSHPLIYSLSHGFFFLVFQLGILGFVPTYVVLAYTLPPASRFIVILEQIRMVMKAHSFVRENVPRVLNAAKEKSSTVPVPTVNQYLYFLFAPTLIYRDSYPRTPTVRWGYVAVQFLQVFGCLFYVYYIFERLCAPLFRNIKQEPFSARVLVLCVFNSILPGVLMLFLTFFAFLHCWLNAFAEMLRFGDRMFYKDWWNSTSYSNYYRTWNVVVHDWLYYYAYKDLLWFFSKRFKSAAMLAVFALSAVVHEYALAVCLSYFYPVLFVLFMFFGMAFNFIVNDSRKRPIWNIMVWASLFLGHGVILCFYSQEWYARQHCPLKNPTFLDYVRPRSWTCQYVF

Cricetinae gen. sp. [2] = assay: Compound was tested for the change in liver cholesterol (CE) levels in hamster; type: functional, Cricetulus griseus
[3] = biological target: T1, Sterol O-acyltransferase 1 (Cricetulus griseus); assay: Compound was tested for the change in serum cholesterol (SC) levels by the inhibition of ACAT in hamster at 50 mg/kg p.o.; type: functional, organism-based; set-up: dose 50 mg/kg
Cricetinae gen. sp. [4] = assay: Compound was tested for the change in liver cholesterol (CE) levels in hamsters; type: functional, Cricetulus griseus
Homo sapiens [5] = organism: Homo sapiens; assay: Compound was tested for the reduction in triglycerides; type: functional
Rattus norvegicus = organism: Rattus norvegicus; assay: Compound was tested for the change in serum cholesterol (SC) level in cholesterol fed rat; type: functional
Homo sapiens [6] = organism: Homo sapiens; assay: Compound was tested for the reduction in high density lipoprotein cholesterol; type: functional
Monkey = assay: Compound was tested for the change in serum cholesterol (SC) levels in cholesterol fed monkey; type: functional; conditions: Cercopithecidae, in Primates
Canis familiaris = organism: Canis familiaris; assay: Compound was tested for the change in serum cholesterol (SC) levels in cholesterol fed dog; type: functional; conditions: Canis lupus familiaris
Homo sapiens [7] = organism: Homo sapiens; assay: Compound was tested for the reduction in total cholesterol; type: functional
Homo sapiens [8] = organism: Homo sapiens; assay: Compound was tested for the reduction in low density lipoprotein cholesterol; type: functional
[9] = biological target: T1, Sterol O-acyltransferase 1 (Cricetulus griseus); assay: Compound was tested for the change in serum cholesterol (SC) levels by the inhibition of ACAT in hamster at 50 mg/kg p.o.; NE=No effect; type: functional, organism-based; set-up: dose 50 mg/kg
[10] = biological target: T1, Sterol O-acyltransferase 1 (Cricetulus griseus); assay: Compound was tested for the change in liver cholesteryl ester (CE) levels by the inhibition of ACAT in hamster at 50 mg/kg p.o.; NE=No effect; type: functional, organism-based; set-up: dose 50 mg/kg

Change in cholesterol [1]: -78%
SMILES: O=C1[C@H](CCCc2ccccc2)[C@@H](c2ccc(O)cc2)N1c1ccc(O)cc1

Change in cholesterol [1]: -68%
SMILES: O=Cc1ccc([C@@H]2[C@@H](CCCc3ccccc3)C(=O)N2c2ccc(O)cc2)cc1

Change in cholesterol [1]: -78%
SMILES: O=Cc1ccc([C@@H]2[C@@H](CCCc3ccc(O)cc3)C(=O)N2c2ccc(C=O)cc2)cc1

Change in cholesterol [9]: inactive
Change in cholesterol [10]: inactive
SMILES: COc1ccc([C@@H]2[C@@H](/C=C/Cc3ccccc3)C(=O)N2c2ccc(OC)cc2)cc1

Continued, compound first:

SMILES: CC(=O)c1ccc([C@@H]2[C@@H](CCC(=O)c3ccccc3)C(=O)N2c2ccc(C(C)=O)cc2)cc1
ED50 (Cricetinae gen. sp. [2]): 1.9 mg/kg

SMILES: COc1ccc([C@@H]2N(c3ccccc3)C(=O)C23CCC(c2ccc(Cl)cc2)CC3)cc1 (stereo in doubt; 18)
Change in cholesterol [3]: No effect
Change in cholesterol [1]: No effect

SMILES: COc1ccc([C@@H]2N(c3ccccc3)C(=O)C23CCC(c2ccc(Cl)cc2)CC3)cc1 (stereo in doubt; 17) [listing 1 of 2 here]
ED50 (Cricetinae gen. sp. [4]): 0.66 mg/kg

SMILES: O=C1[C@H](CC[C@H](O)c2ccc(F)cc2)[C@@H](c2ccc(O)cc2)N1c1ccc(F)cc1 [EZETIMIBE]
Mean (Homo sapiens [5]): -5.7%
ED50 (Rattus norvegicus): 0.03 mg/kg
Mean (Homo sapiens [6]): 1.3%
ED50 (Monkey): 0.0005 mg/kg
ED50 (Canis familiaris): 0.007 mg/kg
Mean (Homo sapiens [7]): -12.5%
Mean (Homo sapiens [8]): -16.9%
ED50 (Cricetinae gen. sp. [2]): 0.04 mg/kg

SMILES: COc1ccc([C@@H]2[C@@H](/C=C\Cc3ccccc3)C(=O)N2c2ccc(OC)cc2)cc1
Change in cholesterol [3]: -20%
Change in cholesterol [1]: -73%

SMILES: COc1ccc([C@@H]2N(c3ccccc3)C(=O)C23CCC(c2ccc(Cl)cc2)CC3)cc1 (stereo in doubt; 17) [listing 2 of 2 here]
Change in cholesterol [3]: -46%
Change in cholesterol [1]: -97%

SMILES: O=Cc1ccc([C@@H]2[C@@H](CC[C@@H](O)c3ccccc3)C(=O)N2c2ccc(C=O)cc2)cc1
ED50 (Cricetinae gen. sp. [2]): 5 mg/kg

SMILES: O=Cc1ccc([C@@H]2[C@@H](CC[C@H](O)c3ccccc3)C(=O)N2c2ccc(C=O)cc2)cc1
ED50 (Cricetinae gen. sp. [4]): 0.9 mg/kg
